Test results reported in US12497666B2, “Nucleic acid biomarker and use thereof” (Daiichi Sankyo Co., Ltd., priority 2013, dated 2025).
Like-named read-outs stand apart in the source and are kept apart here.

Test system: Stage IIIb/IV NSCLC
Method: In both portions of the study, subjects received 150 mg of erlotinib orally once daily. […] Tumors were to be assessed every 6 weeks (±3 days) up to the first 24 weeks of the study, then every 12 weeks (+7 days) independent of treatment cycle.
All efficacy analyses were performed on the full analysis set, which includes all subjects in the randomized analysis set who received at least one dose of randomized study medication. The primary efficacy endpoint was PFS. PFS is defined as the time from the date of randomization to the earlier of the dates of the first objective documentation of radiographic disease progression or death due to any cause. A subject who was alive with no Objective documentation of (radiographic) disease progression by the data cut-off date was to be censored at the date of the last evaluable tumor assessment. The key secondary efficacy endpoint, overall survival, was defined as the time from the date of randomization to death due to any cause and was analyzed in the same manner as the primary efficacy endpoint PFS.
Kaplan-Meier curves were generated for PFS and used to calculate medians and 95% CIs for each treatment group. […] Cox's proportional hazards model.
The stratification factors included histology (Adenocarcinoma vs Non-Adenocarcinoma) and best response to prior therapy (CR/PR/SD vs PD).
Unless otherwise indicated, log-rank p-values and HRs for PFS and OS were based on the primary analysis adjusted for the stratification factors at randomization as described above.

[1] = Enrolled/Randomized set, placebo + erlotinib
[2] = Full Analysis Set, Kaplan-Meier, placebo + erlotinib
[3] = Full Analysis Set, placebo + erlotinib
[4] = HRG high (dCt<3.9), placebo + erlotinib
[5] = HRG high and EGFR wild type, placebo + erlotinib

erlotinib [Placebo + erlotinib, reference compound]
On-Study Death [1]: 13 (18.3%) subjects (%)
Primary Cause of On-Study Death: Adverse Event [1]: 5 (7.0%) subjects (%)
Primary Cause of On-Study Death: Disease Progression [1]: 8 (11.3%) subjects (%)
Primary Reason for Discontinuing Study Treatment: Death [1]: 4 (5.6%) subjects (%)
Primary Reason for Discontinuing Study Treatment: Progressive Disease (Radiographic Progression) [1]: 50 (70.4%) subjects (%)
Overall Survival, time to event, Median [2]: 7.2 months
Progression-Free Survival, time to event, Median [2]: 1.6 months
Subjects (%) with events, OS [3]: 48 (67.6%) subjects (%)
Subjects (%) with events, PFS [3]: 59 (83.1%) subjects (%)
number of subjects with the response being CP/PR [3]: 4 (5.6%) subjects (%)
OS Rate at 1 Year (%) [4]: 32.4%
OS Rate at 6 Months (%) [4]: 49.4%
OS Rate at 9 Months (%) [4]: 49.4%
PFS Rate at 8 Weeks (%) [4]: 31.3%
PFS Rate at 14 Weeks (%) [4]: 18.8%
PFS Rate at 26 Weeks (%) [4]: 0.0%
Progression-Free Survival, time to event, Median [4]: 1.4 months
Subjects (%) with events, OS [4]: 11 (61.1%) subjects (%)
Subjects (%) with events, PFS [4]: 16 (88.9%) subjects (%)
Overall Survival, time to event, Median (HRG high (dCt<3.9), preliminary, placebo + erlotinib): 5.0 months
Progression-Free Survival, time to event, Median [5]: 1.4 months
Subjects (%) with events, PFS [5]: 8 ( 88.9%) subjects (%)
objective response (CR or PR) (HRG high, placebo + erlotinib): 1 (5.6%) subjects (%)
disease control rate (HRG high, placebo plus erlotinib): 22.2%
Overall Survival, time to event, Median (HRG low, placebo + erlotinib): 8.0 months
Progression-Free Survival, time to event, Median (HRG low, placebo + erlotinib): 1.4 months
Subjects (%) with events, OS (HRG low, placebo + erlotinib): 11 (68.8%) subjects (%)
Subjects (%) with events, PFS (HRG low, placebo + erlotinib): 13 ( 81.3%) subjects (%)
